# Reference: patent publication US20250152585A1, “PHARMACEUTICAL COMPOUND” (Duke Street Bio Limited, priority 2022, published 2025)
# Where two headings read alike, the source gives them in different places.
# Experiments:
# [1] = biological target: T1, N-terminally FLAG-tagged PARP2 (amino acids 1-583) (Homo sapiens, UniProt Q9UGN5); assay: PARP2 probe displacement HTRF assay; assay type: binding; settings: binned Kd
# T1 construct: N-terminally FLAG-tagged PARP2 (amino acids 1-583)
# Description: Data analysis was performed identical as for PARP1.
# [2] = biological target: full length N-terminally FLAG-tagged PARP1 (Homo sapiens, UniProt P09874); assay: PARP1 probe displacement HTRF assay; settings: for Selectivity: PARP1 over PARP2, ratio Kd (PARP2)/Kd (PARP1), probe displacement HTRF; for Kd: binned Kd, PARP1 probe displacement HTRF
# Sequence of full length N-terminally FLAG-tagged PARP1 (P09874 whole entry): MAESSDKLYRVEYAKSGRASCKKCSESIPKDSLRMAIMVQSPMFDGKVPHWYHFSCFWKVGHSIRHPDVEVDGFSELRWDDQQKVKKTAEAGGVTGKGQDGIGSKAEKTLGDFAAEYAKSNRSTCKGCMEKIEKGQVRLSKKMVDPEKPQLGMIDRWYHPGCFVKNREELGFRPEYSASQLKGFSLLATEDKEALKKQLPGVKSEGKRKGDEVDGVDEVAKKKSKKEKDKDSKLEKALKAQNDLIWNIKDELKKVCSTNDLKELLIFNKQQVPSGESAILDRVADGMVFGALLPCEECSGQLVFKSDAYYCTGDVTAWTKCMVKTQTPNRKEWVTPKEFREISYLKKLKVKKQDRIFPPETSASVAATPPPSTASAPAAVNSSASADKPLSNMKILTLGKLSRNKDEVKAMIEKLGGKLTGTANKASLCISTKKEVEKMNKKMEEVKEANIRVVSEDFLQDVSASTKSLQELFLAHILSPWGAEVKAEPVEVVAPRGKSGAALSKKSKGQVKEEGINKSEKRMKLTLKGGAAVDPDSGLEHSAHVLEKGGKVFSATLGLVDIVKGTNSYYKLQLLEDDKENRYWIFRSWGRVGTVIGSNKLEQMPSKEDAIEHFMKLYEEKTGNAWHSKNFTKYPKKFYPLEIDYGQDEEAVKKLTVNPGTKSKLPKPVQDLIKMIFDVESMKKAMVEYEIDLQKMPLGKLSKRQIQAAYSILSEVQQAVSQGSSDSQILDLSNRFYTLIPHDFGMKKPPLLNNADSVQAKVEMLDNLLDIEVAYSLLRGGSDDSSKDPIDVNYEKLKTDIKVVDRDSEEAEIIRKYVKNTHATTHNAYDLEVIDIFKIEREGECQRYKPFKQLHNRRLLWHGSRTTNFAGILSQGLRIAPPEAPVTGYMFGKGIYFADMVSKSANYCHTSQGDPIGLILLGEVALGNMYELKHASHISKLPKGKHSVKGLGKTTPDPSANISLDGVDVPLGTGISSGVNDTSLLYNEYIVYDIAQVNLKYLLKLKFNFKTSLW
# T1 sequence (Q9UGN5 whole entry, the tested form may be a part): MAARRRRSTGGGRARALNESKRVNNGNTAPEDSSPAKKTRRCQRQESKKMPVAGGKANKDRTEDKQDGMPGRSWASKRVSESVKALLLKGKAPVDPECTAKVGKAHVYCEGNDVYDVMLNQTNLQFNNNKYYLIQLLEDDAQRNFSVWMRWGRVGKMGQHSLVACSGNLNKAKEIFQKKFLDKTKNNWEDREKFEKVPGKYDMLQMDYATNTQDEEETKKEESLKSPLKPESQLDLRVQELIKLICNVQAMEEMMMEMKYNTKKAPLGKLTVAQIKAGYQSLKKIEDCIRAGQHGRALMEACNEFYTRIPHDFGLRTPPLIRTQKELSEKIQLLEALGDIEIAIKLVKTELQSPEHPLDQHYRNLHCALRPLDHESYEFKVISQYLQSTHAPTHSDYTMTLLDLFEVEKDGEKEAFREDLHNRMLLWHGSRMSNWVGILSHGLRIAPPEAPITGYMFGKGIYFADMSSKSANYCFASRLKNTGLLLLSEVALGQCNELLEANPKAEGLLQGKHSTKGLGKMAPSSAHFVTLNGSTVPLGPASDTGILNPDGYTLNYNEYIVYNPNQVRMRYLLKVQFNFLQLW
SMILES,Kd ([1]; PARP2 probe displacement HTRF) [nM],Kd ([2]; read-out: PARP1 HTRF) [nM],Kd ([1]; probe displacement HTRF) [nM],Kd ([2]; PARP1 HTRF) [nM],Selectivity [2]
"CNC(=O)c1ccc(N2CCC(N3CCCC(c4nc5ccccc5c(=O)[nH]4)C3)CC2)cc1 (single isomer, unassigned) [Compound 82b]",> 10000,10 to 100,–,–,++ (++ indicates a value of 50 to less than 100)
"CNC(=O)c1ccc(N2CCC(N3CCCC(c4nc5ccccc5c(=O)[nH]4)C3)CC2)nc1 (single isomer, unassigned) [Compound 83a]",1000 to 10000,100 to 1000,–,–,− (− indicates a value of less than 10)
"CNC(=O)c1ccc(N2CCC(N3CCCC(c4nc5ccccc5c(=O)[nH]4)C3)CC2)nc1 (single isomer, unassigned) [Compound 83b]",> 10000,100 to 1000,–,–,+ (+ indicates a value of 10 to less than 50)
"CNC(=O)c1ccc(N2CCC(N3CCCC(c4nc5cccnc5c(=O)[nH]4)C3)CC2)cn1 (single isomer, unassigned) [Compound 89a]",> 10000,> 10000,–,–,− (− indicates a value of less than 10)
"CNC(=O)c1ccc(N2CCC(N3CCCC(c4nc5cccnc5c(=O)[nH]4)C3)CC2)cn1 (single isomer, unassigned) [Compound 89b]",> 10000,100 to 1000,–,–,+ (+ indicates a value of 10 to less than 50)
"CNC(=O)c1ccc(N2CCC(N3CCC4CC4(c4nc5ccccc5c(=O)[nH]4)C3)CC2)cn1 (single isomer, unassigned) [Compound 90a]",> 10000,100 to 1000,–,–,+ (+ indicates a value of 10 to less than 50)
"CNC(=O)c1ccc(N2CCC(N3CCC4CC4(c4nc5ccccc5c(=O)[nH]4)C3)CC2)cn1 (single isomer, unassigned) [Compound 90b]",1000 to 10000,100 to 1000,–,–,+ (+ indicates a value of 10 to less than 50)
CNC(=O)c1ccc(N2CCC(CN3CCC(c4ncc(C(F)(F)F)c(=O)[nH]4)CC3)CC2)cn1 [Compound 75],> 10000,–,–,1000 to 10000,− (− indicates a value of less than 10)
CCN1CCCc2c1nc(C13CC(C1)N(C1CCN(c4ccc(C(=O)NC)nc4)CC1)C3)[nH]c2=O [Compound 383],–,–,100 to 1000,–,–

# Second part, led by results:
Kd ([1]; PARP2 probe displacement HTRF) [nM],Kd ([2]; read-out: PARP1 HTRF) [nM],Kd ([1]; probe displacement HTRF) [nM],Kd ([2]; PARP1 HTRF) [nM],SMILES,Selectivity [2]
> 10000,1000 to 10000,–,–,"CNC(=O)c1ccc(N2CCC(N3CCC(c4nc5cnccc5c(=O)[nH]4)C3)CC2)cn1 (single isomer, unassigned) [Compound 84a]",− (− indicates a value of less than 10)
> 10000,10 to 100,–,–,"CNC(=O)c1ccc(N2CCC(N3CCC(c4nc5cnccc5c(=O)[nH]4)C3)CC2)cn1 (single isomer, unassigned) [Compound 84b]",++ (++ indicates a value of 50 to less than 100)
100 to 1000,10 to 100,–,–,"CNC(=O)c1ccc(N2CCC(N3CCC(c4nc5cccc(Cl)c5c(=O)[nH]4)C3)CC2)cn1 (single isomer, unassigned) [Compound 85a]",+ (+ indicates a value of 10 to less than 50)
1000 to 10000,100 to 1000,–,–,"CNC(=O)c1ccc(N2CCC(N3CCC(c4nc5cc(Cl)ccc5c(=O)[nH]4)C3)CC2)cn1 (single isomer, unassigned) [Compound 87a]",+ (+ indicates a value of 10 to less than 50)
1000 to 10000,< 10,–,–,"CNC(=O)c1ccc(N2CCC(N3CCC(c4nc5cc(Cl)ccc5c(=O)[nH]4)C3)CC2)cn1 (single isomer, unassigned) [Compound 87b]",+++ (+++ indicate a value of at least 100)
100 to 1000,100 to 1000,–,–,"CNC(=O)c1ccc(N2CCC(N3CCCC(c4nc5cccc(F)c5c(=O)[nH]4)C3)CC2)cn1 (single isomer, unassigned) [Compound 88a]",− (− indicates a value of less than 10)
1000 to 10000,< 10,–,–,"CNC(=O)c1ccc(N2CCC(N3CCCC(c4nc5cccc(F)c5c(=O)[nH]4)C3)CC2)cn1 (single isomer, unassigned) [Compound 88b]",+++ (+++ indicate a value of at least 100)
1000 to 10000,100 to 1000,–,–,"CNC(=O)c1ccc(N2CCC(N3CCC(c4nc5c(C(F)(F)F)cccc5c(=O)[nH]4)C3)CC2)cn1 (single isomer, unassigned) [Compound 178a]",− (− indicates a value of less than 10)
1000 to 10000,< 10,–,–,"CNC(=O)c1ccc(N2CCC(N3CCC(c4nc5c(C(F)(F)F)cccc5c(=O)[nH]4)C3)CC2)cn1 (single isomer, unassigned) [Compound 178b]",+++ (+++ indicate a value of at least 100)
–,–,1000 to 10000,–,"CNC(=O)c1ccc(N2CCC(N3CCC(c4cc5c(F)cncc5c(=O)[nH]4)C3)CC2)c(F)n1 (single isomer, unassigned) [Compound 343b, 6-fluoro-5-(4-(3-(5-fluoro-1-oxo-1,2-dihydro-2,7-naphthyridin-3-yl)pyrrolidin-1-yl)piperidin-1-yl)-N-methylpicolinamide]",–
